The source of these data is article PMC4961418, “A Selective Irreversible Inhibitor of Furin Does Not Prevent Pseudomonas Aeruginosa Exotoxin A-Induced Airway Epithelial Cytotoxicity” (PLoS ONE, 2016).

The target in the test is cathepsin B (Homo sapiens, UniProt P07858). Nature of the test: Cathepsin B activity assay. The class given is biochemical. The settings on record: cathepsin B, N = 3. The method, then: Fig 3 Comparison of QUB-F1 and furin I versus cathepsin B. Cathepsin B activity was assessed in the presence or absence of various concentrations of QUB-F1 or furin I (N = 3). Data represent mean ± s.e.m.

Peptide text beside a SMILES is read from it. * marks the point of attachment. Decanoyl = CCCCCCCCCC(=O)*; CH2Cl = ClC*

`CCCCCCCCCC(=O)N[C@@H](CCCNC(=N)N)C(=O)N[C@H](C(=O)N[C@@H](CCCCN)C(=O)N[C@@H](CCCNC(=N)N)C(=O)CCl)C(C)C` [furin I, Decanoyl-RVKR-chloromethylketone (CMK), reference compound] (Decanoyl-RVKR-CH2Cl) returned a half-inhibitory concentration (IC50) of 56 nM.
